Assay results reported in publication PMC8355244, “A fragment-based approach identifies an allosteric pocket that impacts malate dehydrogenase activity” (Communications Biology, 2021).

Key:
PfMDH = target: T1, PfMDH (Plasmodium falciparum, UniProt Q6VVP7); experiment: Thermal shift assay (TSA); format: binding
T1 construct: The full-length WT PfMDH gene was cloned into pETM-13; made in house; host or cells: E. coli Rosetta 2 (DE3) pLysS
Description: The TSA experiment was conducted in a BioRad CSX 96 (Biorad). Each reaction consisted of 1 mM of compound (100 mM stock in 100% (v/v) DMSO) and 10 μM PfMDH in 100 mM Na–phosphate buffer pH 7.4, 400 mM NaCl, and 10× Sypro Orange (Invitrogen) for a total volume of 100 μl. Control experiments were performed with 1% (v/v) DMSO. Inflection points were determined using BioRad CFX96™ control software. Generally, a temperature increase of over 1 °C is interpreted as a result of the stabilization of the protein-ligand interaction. On the contrary, a negative shift is considered a destabilization caused by the fragment.

[1] = Precipitation / turbidity of compound in assay buffer (600 nm); format: physicochemical; conditions: activity screening buffer, 500 µM
Description: 1.3 µL of derivatives of 4-phenylthiazol-2-amine in 100% DMSO were mixed with 237.7 µL of a mastermix of WT PfMDH previously incubated with NAD+. The final compound concentration used in this screening was 500 µM in the presence of 0.5% (v/v) DMSO. The microplate was sealed with silver foil for 1-h incubation at 25–35 °C. Finally, reactions in both the samples and control wells were started upon the addition of 13.0 µL of 5 mM malate). At the end of the experiments, the reaction of the plate was spectrophotometrically assayed at 600 nm in order to identify turbidity due to the low solubility of the compound. All measurements were performed in duplicate.

T1 sequence (Q6VVP7 entry or part of it): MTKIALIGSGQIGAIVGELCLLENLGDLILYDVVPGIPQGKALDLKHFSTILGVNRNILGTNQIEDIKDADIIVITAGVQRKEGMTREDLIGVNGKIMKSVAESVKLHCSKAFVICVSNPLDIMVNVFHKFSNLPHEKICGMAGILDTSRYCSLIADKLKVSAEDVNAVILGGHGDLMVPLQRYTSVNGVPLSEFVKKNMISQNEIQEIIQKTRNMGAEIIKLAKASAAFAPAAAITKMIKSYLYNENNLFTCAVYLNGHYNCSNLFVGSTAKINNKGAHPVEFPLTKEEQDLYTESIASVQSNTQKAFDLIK

Q: Which ΔTm (PfMDH; 1 mM compound vs DMSO control) does the source give for “4-(3-(trifluoromethyl)phenyl)thiazol-2-amine [compound 8a]” here?
A: Its ΔTm is −10 °C.

Q: And the Tm (PfMDH; 1 mM compound, 10 μM PfMDH, DMSO control Tm 58)?
A: Its Tm is 48.0 ± 1.0 °C.

Q: And the “precipitation of compound in the buffer” value [1]?
A: Its value is “precipitation of compound was observed”.
